The values below come from patent US20120258960A1, “NOVEL MULTIFUNCTIONAL PEPTIDASE INHIBITORS, ESPECIALLY FOR MEDICAL USE” (IMTM GMBH, priority 2009, published 2012).

In general, IC50 refers to the concentration that inhibits the measured activity by half.

In one assay the test system is T lymphocytes. The assay can be described thus: Inhibition of proliferation of PHA-stimulated T lymphocytes (tritium thymidine incorporation). In kind it is cell-based. The settings on record: Homo sapiens, T-lymphocyte, 1 μg/ml Phytohemagglutinine, 48 hours, test compounds 0.1-250 μM, read-out: T cells IC50. The procedure: (§1) Peripheral blood mononuclear cells (PBMC) from healthy human volunteers were freshly isolated by density gradient centrifugation. T lymphocytes (T cells, Tc) were isolated from PBMC fractions via nylon wool adherence. Cells were cultured in standard cell culture media and stimulated by addition of 1 μg/ml Phytohemagglutinine for 48 hours in 96 well flat-bottom microtitre plates. Test compounds were added at concentration ranges from 0.1-250 μM over the total assay period.
DNA synthesis of proliferating T cells was determined by incorporation of radio labelled tritium thymidine and subsequent radio detection.
(§2) Data output was based on raw data and calculation of relative proliferation response in relation to PHA-activated T cells in the absence of test compound (100% control).
(§3) The […] value of proliferation suppression was assessed by graphical evaluation.
On the technique in general: Uptake of a labelled nucleoside into DNA is a usual measure of proliferation.

Assay [1] deals with human peripheral blood mononuclear cells. Description: Inhibition of proliferation of PHA-stimulated mononuclear cells (BrdU incorporation). It counts as cell-based. Particulars: PBMC, 1 μg/ml Phytohemagglutinine, 48 hours, test compounds 0.1-250 μM, read-out: MNC IC50. The procedure: as §1
DNA synthesis of proliferating PBMC was assessed by incorporation of nucleotide analogue bromdesoxyuridine (BrdU) and subsequent detection of optical density (OD) at 450 nm.
as §2, §3

Consider `CCCCCCCCCCCCCCCCNC(CC(=O)NCC(C)(C)CNC(=O)C(O)C(Cc1ccccc1)NCCCCCCCCCCCCCCCC)Cc1cc(F)ccc1F` (stereo not shown) [drawing 272], for which the values for the IC50 (in the assay with T lymphocytes; in assay [1]) were 11 µM and 10 µM, respectively.
For `CCCCCCCCCCCCCC(=O)OC(C(=O)NCC(C)(C)CNC(=O)CC(N)Cc1cc(F)ccc1F)C(N)Cc1ccccc1` (stereo not shown) [drawing 252], the results for the IC50 (in the assay on T lymphocytes; in assay [1]) were 2 µM and 1.9 µM, respectively.
`NC(CC(=O)NCC1(CNC(=O)C(O)C(N)Cc2ccccc2)CCC1)Cc1ccccc1` (stereo not shown) [drawing 235]: the IC50 in the assay on T lymphocytes amounted to 157 µM; in assay [1], 200 µM.
The like results for `NC(CC(=O)NCCCCCNC(=O)C(O)C(N)Cc1ccccc1)Cc1ccccc1` (stereo not shown) [drawing 233] were, in that order, at least 200 µM and 200 µM.
Regarding `NC(CC(=O)NCC1(CNC(=O)C(O)C(N)Cc2ccccc2)CCC1)Cc1cc(F)ccc1F` (stereo not shown) [drawing 263], the IC50 with T lymphocytes worked out at 19.2 µM; in assay [1], 29.9 µM.
Turning to `NC(CNC(=O)c1cccc(NC(=O)C(O)C(N)Cc2ccc(-c3ccsc3)cc2)c1)Cc1cc(F)ccc1F` (stereo not shown) [drawing 284], the IC50 with T lymphocytes stood at 3.9 µM; in assay [1] it was 4.7 µM.
For `CC(C)(CNC(=O)CC(N)Cc1ccccc1)CNC(=O)C(O)C(N)Cc1ccccc1` (stereo not shown) [drawing 227] the same measures were at least 200 µM and 200 µM.
Take `NC(CC(=O)NCCCCNC(=O)C(O)C(N)Cc1ccc(Br)cc1)Cc1cc(F)ccc1F` (stereo not shown) [drawing 267]: the figures for the 50% inhibitory concentration (IC50) (in the assay with T lymphocytes; in assay [1]) were 58.1 µM and 200 µM, respectively.
As for `NC(CC(=O)NCCNC(=O)C(O)C(N)Cc1ccccc1)Cc1ccccc1` (stereo not shown) [drawing 220], the IC50 is at least 200 µM in the assay on T lymphocytes and 122 µM in assay [1].
Consider `NC(CC(=O)NCC1(CNC(=O)C(O)C(N)Cc2ccccc2)CCCCC1)Cc1cc(F)ccc1F` (stereo not shown) [drawing 273], for which the values for the IC50 (in the assay with T lymphocytes; in assay [1]) were 7 µM and 7.4 µM, respectively.
Regarding `NC(CC(=O)N1CCN(C(=O)C(O)C(N)Cc2ccccc2)CC1)Cc1ccccc1` (stereo not shown) [drawing 223], the values for the IC50 (with T lymphocytes; in assay [1]) were 157 µM and 140 µM, respectively.
In the case of `NC(CNC(=O)c1cccc(NC(=O)C(O)C(N)Cc2ccccc2)c1)Cc1cc(F)ccc1F` (stereo not shown) [drawing 277], the figures for the half-inhibitory concentration (IC50) (in the assay on T lymphocytes; in assay [1]) were 21.4 µM and 27.2 µM, respectively.
For `NC(CNC(=O)c1cccc(NC(=O)C(O)C(N)Cc2ccc(-c3cccnc3)cc2)c1)Cc1cc(F)ccc1F` (stereo not shown) [drawing 285] the same measures were 24.3 µM and 37.8 µM.
For `CC(C)(CNC(=O)CC(N)Cc1cc(F)ccc1F)CNC(=O)C(O)C(N)Cc1ccc(-c2cccnc2)cc1` (stereo not shown) [drawing 282], the concentration for half-maximal inhibition (IC50) with T lymphocytes turned out to be 64.9 µM; in assay [1] it was 31.4 µM.
